From ChEMBL document CHEMBL6127046, “Design, synthesis, and preclinical evaluation of 11C/18F-labeled inhibitors for RIPK1 PET imaging” (Eur J Med Chem, 2024) come the findings set out here.

One series has as its system L929. In words: Anti-necroptosis activity against TNFalpha/Z-VAD-FMK-induced mouse L929 cell necroptosis model assessed as cell viability incubated for 24 hrs by CCK8 assay. It counts as functional, cell-based. The note with it: L929, 24 h.
Series [1] in a line: Drug uptake in mouse brain assessed as maximum standardized uptake value measured upto 60 mins by PET imaging method. The series is classed as ADME, tissue-based. Particulars: in vivo, 1 h; call rule not given here.
A further series deals with HT-29. In words: Anti-necroptosis activity against TNFalpha/SM-164/Z-VAD-FMK-induced human HT-29 cell necroptosis model assessed as cell viability incubated for 24 hrs by CCK8 assay. The series is classed as functional, cell-based. The note with it: HT-29, 24 h. For orientation: Formazan colour is commonly taken as a measure of viable cells.
For a further series, the system named is U-937. The series is described as follows: Anti-necroptosis activity against TNFalpha/SM-164/Z-VAD-FMK-induced human U-937 cell necroptosis model assessed as cell viability incubated for 24 hrs by CCK8 assay. The note with it: U-937, 24 h. The series is classed as functional, cell-based.
Series [2] can be described thus: Lipophilicity, logD of compound at pH 7.4 by shake-flask method. It counts as physicochemical. Particulars: buffer.
Series [3] deals with T1, Receptor-interacting serine/threonine-protein kinase 1 (Homo sapiens, UniProt Q13546).
T1 sequence (Q13546 whole entry): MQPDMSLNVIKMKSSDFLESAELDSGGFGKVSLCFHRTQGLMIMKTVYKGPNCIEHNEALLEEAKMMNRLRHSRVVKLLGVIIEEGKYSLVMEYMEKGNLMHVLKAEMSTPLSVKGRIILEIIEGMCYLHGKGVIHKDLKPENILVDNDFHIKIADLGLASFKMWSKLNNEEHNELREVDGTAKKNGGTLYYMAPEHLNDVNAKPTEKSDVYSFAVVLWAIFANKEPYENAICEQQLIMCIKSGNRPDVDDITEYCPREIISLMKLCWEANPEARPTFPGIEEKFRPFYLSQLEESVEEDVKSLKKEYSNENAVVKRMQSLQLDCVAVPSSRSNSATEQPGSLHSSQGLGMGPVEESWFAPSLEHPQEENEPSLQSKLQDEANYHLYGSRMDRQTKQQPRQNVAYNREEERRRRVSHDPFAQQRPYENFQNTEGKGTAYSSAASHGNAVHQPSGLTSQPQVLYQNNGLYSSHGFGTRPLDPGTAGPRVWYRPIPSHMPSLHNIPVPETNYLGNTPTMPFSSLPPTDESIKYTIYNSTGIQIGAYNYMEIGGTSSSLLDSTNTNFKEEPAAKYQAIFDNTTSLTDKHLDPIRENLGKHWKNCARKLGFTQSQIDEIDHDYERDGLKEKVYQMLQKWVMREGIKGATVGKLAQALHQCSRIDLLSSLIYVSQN
In words: Binding affinity to RIPK1 (unknown origin) by KINOMEscan method.

The nature of series [4]: Drug uptake in mouse striatum measured upto 60 mins by PET imaging method. It counts as ADME. Particulars: in vivo, 1 h.
Series [5] in a line: Drug uptake in mouse thalamus measured upto 60 mins by PET imaging method. The series is classed as ADME. The note with it: in vivo, 1 h.
A short description of series [6]: Drug uptake in mouse hippocampus measured upto 60 mins by PET imaging method. It counts as ADME. Particulars: in vivo, 1 h.
Series [7] in a line: Drug uptake in mouse brain in presence of 1-(7-fluoro-2,3-dihydrobenzo[f][1,4]oxazepin-4(5H)-yl)-2,2-dimethylbutan-1-one by autoradiography. It counts as ADME, tissue-based. Particulars: in vivo.
A short description of series [8]: Drug uptake in mouse brain in presence of Nec-1s by autoradiography. It counts as ADME, tissue-based. Particulars: in vivo.
A short description of series [9]: Metabolic stability in mouse plasma assessed as remaining compound measured at 5 mins by HPLC analysis. The note with it: read-out: Stability. The series is classed as ADME, cell-free.
Series [10] is described as follows: Metabolic stability in mouse plasma assessed as remaining compound measured at 10 mins by HPLC analysis. It counts as ADME, cell-free. The note with it: read-out: Stability.
A short description of series [11]: Metabolic stability in mouse plasma assessed as remaining compound measured at 30 mins by HPLC analysis. The series is classed as ADME, cell-free. Particulars: read-out: Stability.
Series [12] can be described thus: Drug metabolism in mouse plasma assessed as retention time. The series is classed as ADME, cell-free.
Series [13] can be described thus: Drug metabolism in mouse plasma measured at 11 mins. The series is classed as ADME, cell-free.
The nature of series [14]: Metabolic stability in mouse brain assessed as remaining compound measured at 5 mins by HPLC analysis. The series is classed as ADME, tissue-based. The note with it: read-out: Stability.
The nature of series [15]: Metabolic stability in mouse brain assessed as remaining compound measured at 30 mins by HPLC analysis. The series is classed as ADME, tissue-based. The note with it: read-out: Stability.
A short description of series [16]: Drug metabolism in mouse blood measured after 10 to 12 mins by HPLC analysis. It counts as ADME, tissue-based. Particulars: time 10-12 min.
A short description of series [17]: Drug metabolism in mouse brain measured after 10 to 12 mins by HPLC analysis. It counts as ADME, tissue-based. Particulars: time 10-12 min.

For `O=C(C1CCN(c2ncc(Br)cn2)CC1)N1CCOc2ccc(Br)cc2C1`, in the series on L929, the EC50 (usually the concentration that produces a half-maximal response) was over 10 µM.

Take `O=C(C1CCN(c2ncc([18F])cn2)CC1)N1CCOc2ccc(F)cc2C1`: the SUVmax in [1] is reported as 1.5.

For `O=C(C1CCN(c2ncc(F)cn2)CC1)N1CCOc2ccc(F)cc2C1`, the EC50 with L929 was 0.77 µM; in the series on HT-29, 5.12 µM; in the series on U-937, 2.76 µM. The logD (in general, the decadic logarithm of the distribution of all forms, ionised or not, between an organic phase and buffer at a given pH) in series [2] is 2.2.

Turning to `CCC(C)(C)C(=O)N1CCOc2ccc(F)cc2C1`, the 50% effective concentration (EC50) with L929 stood at 0.02 µM; in the series on HT-29, 0.00804 µM; in the series with U-937, 0.0249 µM. For the same compound, the logD in series [2] came out at 3.1. The Kd (in general, a measure of binding affinity in units of concentration) in series [3] amounted to 0.018 µM.

Turning to `CCC(C)(C)C(=O)N1CCOc2ccc(O)cc2C1`, in the series with L929, the EC50 was over 10 µM.

For the compound `O=C(C1CCN(c2ncc(Br)cn2)CC1)N1CCOc2ccccc2C1`, the EC50 in the series with L929 was over 10 µM.

For the compound `COc1cnc(N2CCC(C(=O)N3CCOc4ccccc4C3)CC2)nc1`, the EC50 with L929 is 4.23 µM.

Take `CC(C)C(=O)Nc1nc2cc(-c3ccc4c(c3)c(C(=O)NC(C)c3ccccc3)cn4C)ccn2n1` (stereo unspecified): the EC50 with L929 turned out to be 0.004 µM; in the series with HT-29 it was 0.0125 µM; in the series on U-937, 0.0124 µM.

On to `CCC(C)(C)C(=O)N1CCOc2ccc([18F])cc2C1`, for which, in series [1], the SUVmax amounted to 1.5. Also, the Drug uptake result in [4] is on record as “Active”; in series [5] it was “Active”; in series [6], “Active”; in series [7], “Not Active”; in series [8], “Not Active”. Also, the remaining at 5 min in [9] was determined as 72%; in series [14], 86%. In series [10], the remaining at 10 min worked out at 51%. The values for the remaining at 0.5 h in [11] and in [15] were 25% and 44%, respectively. For the same compound, the Retention_time in series [12] is recorded as 2.8 min. The Drug metabolism entry in [13], in [16] and in series [17] was “Metabolite_Detected” in each case.

As for `COc1nc(N2CCC(C(=O)N3CCOc4ccc(Br)cc4C3)CC2)ncc1F`, the EC50 with L929 stood at 5.21 µM.

`O=C(C1CCN(c2ncc(O)cn2)CC1)N1CCOc2ccc(F)cc2C1`: the EC50 in the series with L929 is over 10 µM.

Consider `O=C(C1CCN(c2ncc(F)cn2)CC1)N1CCOc2ccccc2C1`, for which the EC50 with L929 worked out at 0.83 µM.

For the compound `COc1nc(N2CCC(C(=O)N3CCOc4ccc(F)cc4C3)CC2)ncc1F`, the EC50 in the series with L929 was determined as 6.57 µM.

For the compound `CCC(C)(C)C(=O)N1CCOc2ccc(OC)cc2C1`, the EC50 with L929 was 8.96 µM.

Consider `COc1cnc(N2CCC(C(=O)N3CCOc4ccc(F)cc4C3)CC2)nc1`, for which the EC50 in the series with L929 was 0.38 µM; with HT-29, 0.2 µM; in the series with U-937 it was 2.2 µM. Moreover, the logD in series [2] was found to be 1.8.

In the case of `[11CH3]Oc1cnc(N2CCC(C(=O)N3CCOc4ccc(F)cc4C3)CC2)nc1`, the SUVmax in series [1] was 0.8.

`O=C(C1CCN(c2ncc(F)cn2)CC1)N1CCOc2ccc(O)cc2C1`: the EC50 in the series on L929 was over 10 µM.

For `COc1ccc2c(c1)CN(C(=O)C1CCN(c3ncc(F)cn3)CC1)CCO2`, the EC50 with L929 was 2.58 µM.

As for `O=C(C1CCN(c2ncc(F)cn2)CC1)N1CCOc2ccc(Br)cc2C1`, the EC50 with L929 was determined as 6.93 µM.

For the compound `O=C(C1CCN(c2ncc(Br)cn2)CC1)N1CCOc2ccc(F)cc2C1`, the EC50 in the series on L929 came to 2.32 µM.
